Several values for one entry are separate records, joined by “and”; a condition that tells them apart may be missing. Identical values can stand only once. Toxic doses and inconclusive results are not listed.
System: CD2F1 mice, L1210 leukemia ip, survival T/C
Test: NCI In Vivo Anticancer Drug Screen. Data for tumor model L1210 Leukemia (intraperitoneal) in CD2F1 (CDF1) mice
Settings: higher = longer survival
Summary of the method: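 Antitumor effect is scored in animals hosting a serially transplanted tumor. Values compare compound-dosed animals against vehicle-only controls as a simple quotient.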

[1] = endpoint: mean survival time, dose: 100.0 mg/kg/injection, schedule: Q04DX003 (ip), vehicle: saline with Tween-80
[2] = endpoint: mean survival time, dose: 200.0 mg/kg/injection, schedule: Q04DX003 (ip), vehicle: saline with Tween-80
[3] = endpoint: mean survival time, dose: 400.0 mg/kg/injection, schedule: Q04DX003 (ip), vehicle: saline with Tween-80
[4] = endpoint: mean survival time, dose: 75.0 mg/kg/injection, schedule: Q01DX001 (ip), vehicle: saline
[5] = endpoint: mean survival time, dose: 100.0 mg/kg/injection, schedule: Q04DX002 (ip), vehicle: saline with Tween-80
[6] = endpoint: mean survival time, dose: 200.0 mg/kg/injection, schedule: Q04DX002 (ip), vehicle: saline with Tween-80
[7] = endpoint: mean survival time, dose: 400.0 mg/kg/injection, schedule: Q04DX002 (ip), vehicle: saline with Tween-80
[8] = endpoint: mean survival time, dose: 100.0 mg/kg/injection, schedule: Q04DX003 (ip), vehicle: saline sonified
[9] = endpoint: mean survival time, dose: 200.0 mg/kg/injection, schedule: Q04DX003 (ip), vehicle: saline sonified
[10] = endpoint: mean survival time, dose: 12.5 mg/kg/injection, schedule: Q04DX003 (ip), vehicle: Klucel (hydroxypropylcellulose) (HPC)
[11] = endpoint: mean survival time, dose: 25.0 mg/kg/injection, schedule: Q04DX003 (ip), vehicle: Klucel (hydroxypropylcellulose) (HPC)
[12] = endpoint: mean survival time, dose: 50.0 mg/kg/injection, schedule: Q04DX003 (ip), vehicle: Klucel (hydroxypropylcellulose) (HPC)
[13] = endpoint: mean survival time, dose: 100.0 mg/kg/injection, schedule: Q01DX009 (ip), vehicle: saline with Tween-80
[14] = endpoint: mean survival time, dose: 200.0 mg/kg/injection, schedule: Q01DX009 (ip), vehicle: saline with Tween-80

C=C1C2CCC3C2C(C)(C)CCCC13C (stereo unspecified)
T/C (endpoint: mean survival time, dose: 100.0 mg/kg/injection, schedule: Q01DX009 (ip), vehicle: saline): 98 % of control
T/C [1]: 103 % of control
T/C (endpoint: mean survival time, dose: 200.0 mg/kg/injection, schedule: Q01DX009 (ip), vehicle: saline): 97 % of control
T/C [2]: 104 % of control
T/C (endpoint: mean survival time, dose: 400.0 mg/kg/injection, schedule: Q01DX009 (ip), vehicle: saline): 101 % of control
T/C [3]: 93 % of control

CN1CC=C(c2ccccc2)CC1
T/C (endpoint: mean survival time, dose: 18.8 mg/kg/injection, schedule: Q04DX003 (ip), vehicle: saline): 102 % of control
T/C (endpoint: mean survival time, dose: 37.5 mg/kg/injection, schedule: Q04DX003 (ip), vehicle: saline): 104 % of control
T/C [4]: 100 % of control

CCOc1ccc(CCN2CC34C=CC(O3)C(C(=O)O)C4C2=O)cc1OC (stereo unspecified)
T/C [5]: 95 % of control
T/C [6]: 95 % of control
T/C [7]: 91 % of control

CC1CN1CCCNC(=O)C(=O)NCCCN1CC1C (stereo unspecified)
T/C (endpoint: mean survival time, dose: 100.0 mg/kg/injection, schedule: Q01DX001 (ip), vehicle: saline): 182 % of control

O=C1NNC(=O)C2C3CCC(C3)C12 (stereo unspecified)
T/C [8]: 95 % of control
T/C [9]: 89 % of control

N#CSc1ccc(Nc2ccc(SC#N)cc2)cc1
T/C [10]: 113 % of control
T/C [11]: 109 % of control
T/C [12]: 107 % of control

CC/C(=C\c1ccc(Cl)cc1)[N+](=O)[O-]
T/C [10]: 102 % of control
T/C [11]: 97 % of control
T/C [12]: 97 % of control

CCC/C=C(\C)C(C#N)CC (stereo unspecified)
T/C [4]: 100 % of control
T/C (endpoint: mean survival time, dose: 150.0 mg/kg/injection, schedule: Q01DX001 (ip), vehicle: saline): 97 % of control
T/C (endpoint: mean survival time, dose: 300.0 mg/kg/injection, schedule: Q01DX001 (ip), vehicle: saline): 101 % of control

O=C(O)C1CC(Br)C(Br)CC1C(=O)O (stereo unspecified)
T/C [13]: 95 % of control
T/C [14]: 100 % of control
T/C (endpoint: mean survival time, dose: 400.0 mg/kg/injection, schedule: Q01DX009 (ip), vehicle: saline with Tween-80): 91 % of control

C=C1C(=O)C23[C@H](O)C1CC[C@H]2[C@]12COC3(O)[C@@H](O)[C@@H]1C(C)(C)CC[C@@H]2O
T/C (endpoint: mean survival time, dose: 1.56 mg/kg/injection, schedule: Q01DX009 (ip), vehicle: saline with Tween-80): 97 % of control and 111 % of control
T/C (endpoint: mean survival time, dose: 3.12 mg/kg/injection, schedule: Q01DX009 (ip), vehicle: saline with Tween-80): 102 % of control and 103 % of control
T/C (endpoint: mean survival time, dose: 4.5 mg/kg/injection, schedule: Q01DX009 (ip), vehicle: Klucel (hydroxypropylcellulose) (HPC)): 93 % of control and 105 % of control and 107 % of control
T/C (endpoint: mean survival time, dose: 6.25 mg/kg/injection, schedule: Q01DX009 (ip), vehicle: saline with Tween-80): 96 % of control and 102 % of control
T/C (endpoint: mean survival time, dose: 9.0 mg/kg/injection, schedule: Q01DX009 (ip), vehicle: Klucel (hydroxypropylcellulose) (HPC)): 95 % of control and 97 % of control
T/C (endpoint: mean survival time, dose: 12.5 mg/kg/injection, schedule: Q01DX009 (ip), vehicle: saline with Tween-80): 97 % of control and 105 % of control
T/C (endpoint: mean survival time, dose: 18.0 mg/kg/injection, schedule: Q01DX009 (ip), vehicle: Klucel (hydroxypropylcellulose) (HPC)): 93 % of control and 101 % of control and 107 % of control
T/C (endpoint: mean survival time, dose: 25.0 mg/kg/injection, schedule: Q01DX009 (ip), vehicle: saline with Tween-80): 102 % of control and 105 % of control
T/C (endpoint: mean survival time, dose: 36.0 mg/kg/injection, schedule: Q01DX009 (ip), vehicle: Klucel (hydroxypropylcellulose) (HPC)): 90 % of control and 107 % of control

CC(C)(C)S(=O)(=O)C(C)(C)C
T/C [1]: 98 % of control
T/C [2]: 93 % of control
T/C [3]: 93 % of control

CC1CC(C)(C)N=C(C2(c3ccccc3)CCC2)O1 (stereo unspecified)
T/C (endpoint: mean survival time, dose: 100.0 mg/kg/injection, schedule: Q01DX001 (ip), vehicle: saline with Tween-80): 101 % of control
T/C [5]: 101 % of control
T/C (endpoint: mean survival time, dose: 200.0 mg/kg/injection, schedule: Q01DX001 (ip), vehicle: saline with Tween-80): 111 % of control
T/C [6]: 93 % of control
T/C (endpoint: mean survival time, dose: 400.0 mg/kg/injection, schedule: Q01DX001 (ip), vehicle: saline with Tween-80): 98 % of control
T/C [7]: 93 % of control

CS(=O)(=O)c1ccncc1
T/C [8]: 95 % of control
T/C [9]: 98 % of control

CC(=O)N(C)N=Nc1ccc([N+](=O)[O-])cc1
T/C [11]: 103 % of control
T/C [12]: 103 % of control
T/C (endpoint: mean survival time, dose: 100.0 mg/kg/injection, schedule: Q04DX003 (ip), vehicle: Klucel (hydroxypropylcellulose) (HPC)): 97 % of control
T/C (endpoint: mean survival time, dose: 200.0 mg/kg/injection, schedule: Q04DX003 (ip), vehicle: Klucel (hydroxypropylcellulose) (HPC)): 114 % of control

Cc1cc(=S)[nH]c2ccccc12
T/C (endpoint: mean survival time, dose: 37.5 mg/kg/injection, schedule: Q01DX009 (ip), vehicle: saline): 91 % of control
T/C (endpoint: mean survival time, dose: 75.0 mg/kg/injection, schedule: Q01DX009 (ip), vehicle: saline): 91 % of control
T/C (endpoint: mean survival time, dose: 150.0 mg/kg/injection, schedule: Q01DX009 (ip), vehicle: saline): 96 % of control

NNC(=O)CCCCC(=O)NN
T/C (endpoint: mean survival time, dose: 100.0 mg/kg/injection, schedule: Q04DX003 (ip), vehicle: saline): 97 % of control
T/C (endpoint: mean survival time, dose: 200.0 mg/kg/injection, schedule: Q04DX003 (ip), vehicle: saline): 100 % of control
T/C (endpoint: mean survival time, dose: 400.0 mg/kg/injection, schedule: Q04DX003 (ip), vehicle: saline): 99 % of control

C/C(=N\NC(=S)N1CC2CCC(CC2)C1)c1cccc(C)n1
T/C (endpoint: median survival time, dose: 3.12 mg/kg/injection, schedule: Q01DX005 (ip), vehicle: saline with Tween-80): 103 % of control
T/C (endpoint: median survival time, dose: 6.25 mg/kg/injection, schedule: Q01DX005 (ip), vehicle: saline with Tween-80): 108 % of control
T/C (endpoint: median survival time, dose: 12.5 mg/kg/injection, schedule: Q01DX005 (ip), vehicle: saline with Tween-80): 119 % of control
T/C (endpoint: median survival time, dose: 25.0 mg/kg/injection, schedule: Q01DX005 (ip), vehicle: saline with Tween-80): 102 % of control and 108 % of control

O=C(O)/C=C\C(=O)Nc1ccccn1
T/C (endpoint: mean survival time, dose: 5.0 mg/kg/injection, schedule: Q01DX009 (ip), vehicle: saline): 94 % of control
T/C (endpoint: mean survival time, dose: 5.0 mg/kg/injection, schedule: Q04DX003 (ip), vehicle: saline): 105 % of control and 106 % of control
T/C (endpoint: mean survival time, dose: 10.0 mg/kg/injection, schedule: Q01DX009 (ip), vehicle: saline): 92 % of control
T/C (endpoint: mean survival time, dose: 10.0 mg/kg/injection, schedule: Q04DX003 (ip), vehicle: saline): 97 % of control and 105 % of control
T/C (endpoint: mean survival time, dose: 20.0 mg/kg/injection, schedule: Q04DX003 (ip), vehicle: saline): 97 % of control and 98 % of control
T/C (endpoint: mean survival time, dose: 30.0 mg/kg/injection, schedule: Q01DX009 (ip), vehicle: saline): 100 % of control
T/C (endpoint: mean survival time, dose: 60.0 mg/kg/injection, schedule: Q01DX009 (ip), vehicle: saline): 105 % of control

BrC1CCCCCCC1
T/C [1]: 92 % of control
T/C [2]: 98 % of control
T/C [3]: 95 % of control

CC(NC(=O)OCc1ccccc1)C(=O)O (stereo unspecified)
T/C [13]: 97 % of control
T/C [1]: 100 % of control
T/C [14]: 94 % of control
T/C [2]: 105 % of control
T/C [3]: 103 % of control

O=NN(CCCl)C(=S)NCCCl
T/C (endpoint: mean survival time, dose: 1.87 mg/kg/injection, schedule: Q01DX001 (ip), vehicle: distilled water + Tween-80): 113 % of control
T/C (endpoint: mean survival time, dose: 3.75 mg/kg/injection, schedule: Q01DX001 (ip), vehicle: distilled water + Tween-80): 115 % of control
T/C (endpoint: mean survival time, dose: 15.0 mg/kg/injection, schedule: Q01DX001 (ip), vehicle: distilled water + Tween-80): 159 % of control and 215 % of control
T/C (endpoint: mean survival time, dose: 30.0 mg/kg/injection, schedule: Q01DX001 (ip), vehicle: distilled water + Tween-80): 318 % of control

COc1cccc(C(=O)CC(O)(C(F)(F)F)C(F)(F)F)c1
T/C (endpoint: mean survival time, dose: 100.0 mg/kg/injection, schedule: Q01DX009 (ip), vehicle: other): 101 % of control
T/C (endpoint: mean survival time, dose: 200.0 mg/kg/injection, schedule: Q01DX009 (ip), vehicle: other): 97 % of control
T/C (endpoint: mean survival time, dose: 400.0 mg/kg/injection, schedule: Q01DX009 (ip), vehicle: other): 101 % of control

CCOC(=O)Nc1cc(NC(c2ccccc2)c2ccccc2)c([N+](=O)[O-])c(Cl)n1
T/C (endpoint: mean survival time, dose: 100.0 mg/kg/injection, schedule: Q01DX001 (ip), vehicle: carboxymethylcellulose (CMC)): 95 % of control
T/C (endpoint: mean survival time, dose: 200.0 mg/kg/injection, schedule: Q01DX001 (ip), vehicle: carboxymethylcellulose (CMC)): 93 % of control
T/C (endpoint: mean survival time, dose: 400.0 mg/kg/injection, schedule: Q01DX001 (ip), vehicle: carboxymethylcellulose (CMC)): 91 % of control

From PubChem BioAssay AID256 (DTP/NCI, 2004)
